Data on 19 molecules can be found in patent publication US20230099344A1, “COMPOUNDS AND METHODS FOR THE TARGETED DEGRADATION OF IRAK-4” (Arvinas Operations, Inc., priority 2021, published 2023).

The experiment addresses T1, IRAK-4 (Homo sapiens, UniProt Q9NWZ3).
T1 sequence (Q9NWZ3 1-460): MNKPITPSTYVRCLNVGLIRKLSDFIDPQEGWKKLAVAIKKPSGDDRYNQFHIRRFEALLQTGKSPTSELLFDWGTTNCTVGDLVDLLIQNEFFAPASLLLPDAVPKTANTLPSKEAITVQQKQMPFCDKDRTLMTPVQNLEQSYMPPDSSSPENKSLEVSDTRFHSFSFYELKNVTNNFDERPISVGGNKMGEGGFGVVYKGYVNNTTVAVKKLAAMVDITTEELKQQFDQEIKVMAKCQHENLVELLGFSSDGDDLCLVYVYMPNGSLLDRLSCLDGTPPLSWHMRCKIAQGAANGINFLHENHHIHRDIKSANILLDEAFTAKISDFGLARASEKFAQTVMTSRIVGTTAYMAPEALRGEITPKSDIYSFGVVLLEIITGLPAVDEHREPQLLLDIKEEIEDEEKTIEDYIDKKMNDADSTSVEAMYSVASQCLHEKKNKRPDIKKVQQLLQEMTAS
Put plainly: IRAK-4 ELISA, PBMC degradation. Format: cell-based. Set-up: endogenous in cells; host or cells: PBMC. Conditions: treated overnight. In a few lines: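 Overnight compound treatment, started on the day of plating, of OCI-Ly10 (1×10^6/ml) and PBMC (2×10^6/ml) cultures. Lysates are collected and IRAK-4 content is read by sandwich ELISA.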
On the technique in general: An ELISA detects its analyte on a solid surface through an enzyme-linked reagent.

For `O=C1CCC(N2C(=O)c3ccc(N4CC(CN5CCC(n6cc7cc(NC(=O)c8cnn9cccnc89)c(OCC(F)F)cc7n6)CC5)C4)cc3C2=O)C(=O)N1` (stereo not drawn) [Example 235], the DC50 (commonly the concentration at which degradation of the target reaches its halfway point) was below 1 nM, the Dmax (usually the largest share of the target that was removed) is at least 90% and the “PBMC DC90” value is “A (A represents a DC90 value <10.0 nM)”.

`COc1cc2nn(C3CCN(CC4(F)CN(c5ccc6c(c5)C(=O)N(C5CCC(=O)NC5=O)C6=O)C4)CC3)cc2cc1NC(=O)c1cnn2ccc(N3CCOCC3)nc12` (stereo not drawn) [Example 236]: the DC50 was below 1 nM, the maximal degradation (Dmax) was 70 to 80% and the “PBMC DC90” value is reported as “A (A represents a DC90 value <10.0 nM)”.

With `CNc1ccn2ncc(C(=O)Nc3cc4cn(C5CCN(CC6(F)CN(c7ccc8c(c7)C(=O)N(C7CCC(=O)NC7=O)C8=O)C6)CC5)nc4cc3OCC3CC3)c2n1` (stereo not drawn) [Example 237], the half-maximal degradation concentration (DC50) is 1 to 5 nM, the Dmax was in the range of 70 to 80% and the “PBMC DC90” value is recorded as “D (D represents a DC90 value ≥50 nM)”.

Take `COc1cc2nn(C3CCN(CC4(F)CN(c5ccc6c(c5)C(=O)N(C5CCC(=O)NC5=O)C6=O)C4)CC3)cc2cc1NC(=O)c1cnn2ccc(C3C[C@H]4C[C@@H]3CO4)nc12` (stereo partly drawn) [Example 238]: the DC50 lay within 1 to 5 nM; the greatest degradation seen (Dmax) was 70 to 80%; the “PBMC DC90” value was “B (B represents a DC90 value ≥10.0 nM and <25.0 nM)”.

Turning to `O=C1CCC(N2C(=O)c3ccc(N4CC(F)(CN5CCC(n6cc7cc(NC(=O)c8cnn9ccc(N%10C[C@H]%11C[C@@H]%10CO%11)nc89)c(OCC8CC8)cc7n6)CC5)C4)cc3C2=O)C(=O)N1` (stereo partly drawn) [Example 239], the half-maximal degradation concentration (DC50) was in the range of 5 to 10 nM; the Dmax was below 70%; the “PBMC DC90” value was “C (C represents a DC90 value ≥25.0 nM and <50 nM)”.

Take `COc1cc(N2CC(F)(CN3CCC(n4cc5cc(NC(=O)c6cnn7cccnc67)c(OCC6CC6)cc5n4)CC3)C2)cc2c1C(=O)N(C1CCC(=O)NC1=O)C2` (stereo not drawn) [Example 242]: the 50% degradation concentration (DC50) lay within 1 to 5 nM, the Dmax was 80 to 90% and the “PBMC DC90” value is recorded as “A (A represents a DC90 value <10.0 nM)”.

Consider `COc1cc2c(cc1N1CC(F)(CN3CCC(n4cc5cc(NC(=O)c6cnn7cccnc67)c(OCC6CC6)cc5n4)CC3)C1)C(=O)N(C1CCC(=O)NC1=O)C2=O` (stereo not drawn) [Example 244], for which the DC50 was 1 to 5 nM; the greatest degradation seen (Dmax) was 80 to 90%; the “PBMC DC90” value was “B (B represents a DC90 value ≥10.0 nM and <25.0 nM)”.

With `O=C1CCC(N2C(=O)c3ccc(N4CCC5(CCC(CN6CCC(n7cc8cc(NC(=O)c9cnn%10cccnc9%10)c(OCC9CC9)cc8n7)CC6)CC5)CC4)cc3C2=O)C(=O)N1` (stereo not drawn) [Example 247], the 50% degradation concentration (DC50) lay within 1 to 5 nM; the greatest degradation seen (Dmax) was at least 90%; the “PBMC DC90” value is “B (B represents a DC90 value ≥10.0 nM and <25.0 nM)”.

For the molecule `C[C@H](Oc1cc2nn(C3CCN(CC4(F)CN(c5ccc6c(c5)C(=O)N(C5CCC(=O)NC5=O)C6=O)C4)CC3)cc2cc1NC(=O)c1cnn2cccnc12)C1CC1` (stereo partly drawn) [Example 264], the DC50 lay within 1 to 5 nM; the maximal degradation (Dmax) was in the range of 70 to 80%; the “PBMC DC90” value was “B (B represents a DC90 value ≥10.0 nM and <25.0 nM)”.

With `O=C1CCC(N2C(=O)c3cccc(N4CC(F)(CN5CCC(n6cc7cc(NC(=O)c8cnn9cccnc89)c(OCC8CC8)cc7n6)CC5)C4)c3C2=O)C(=O)N1` (stereo not drawn) [Example 270, N-(6-(cyclopropylmethoxy)-2-(1-((1-(2-(2,6-dioxopiperidin-3-yl)-1,3-dioxoisoindolin-4-yl)-3-fluoroazetidin-3-yl)methyl)piperidin-4-yl)-2H-indazol-5-yl)pyrazolo[1,5-a]pyrimidine-3-carboxamide], the DC50 was at least 10 nM, the Dmax was below 70% and the “PBMC DC90” value is “D (D represents a DC90 value ≥50 nM)”.

As to `CC(C)Oc1cc2nn(C3CCN(CC4(F)CN(c5cccc6c5C(=O)N(C5CCC(=O)NC5=O)C6=O)C4)CC3)cc2cc1NC(=O)c1cnn2cccnc12` (stereo not drawn) [Example 271, N-(2-(1-((1-(2-(2,6-dioxopiperidin-3-yl)-1,3-dioxoisoindolin-4-yl)-3-fluoroazetidin-3-yl)methyl)piperidin-4-yl)-6-isopropoxy-2H-indazol-5-yl)pyrazolo[1,5-a]pyrimidine-3-carboxamide], the DC50 lay within 5 to 10 nM, the Dmax was 80 to 90% and the “PBMC DC90” value is listed as “D (D represents a DC90 value ≥50 nM)”.

As for `CC(C)Oc1cc2c(cc1NC(=O)c1cnn3cccnc13)CN([C@H]1CC[C@H](N3CCN(c4ccc5c(c4)CN(C4CCC(=O)NC4=O)C5=O)CC3)CC1)C2=O` (stereo partly drawn) [Example 273, N-(2-((1r,4r)-4-(4-(2-(2,6-dioxopiperidin-3-yl)-1-oxoisoindolin-5-yl)piperazin-1-yl)cyclohexyl)-6-isopropoxy-1-oxoisoindolin-5-yl)pyrazolo[1,5-a]pyrimidine-3-carboxamide], the half-maximal degradation concentration (DC50) was below 1 nM, the Dmax was at least 90% and the “PBMC DC90” value is on record as “A (A represents a DC90 value <10.0 nM)”.

With `CC(C)Oc1cc2c(cc1NC(=O)c1cnn3cccnc13)CN(C1CCN(C3(C)CN(c4ccc5c(c4)CN(C4CCC(=O)NC4=O)C5=O)C3)CC1)C2=O` (stereo not drawn) [Example 275], the DC50 is below 1 nM, the greatest degradation seen (Dmax) was at least 90% and the “PBMC DC90” value is reported as “A (A represents a DC90 value <10.0 nM)”.

For `CC(C)Oc1cc2c(cc1NC(=O)c1cnn3cccnc13)CN([C@H]1CC[C@@H](N3CCN(c4ccc5c(c4)CN(C4CCC(=O)NC4=O)C5=O)CC3)CC1)C2=O` (stereo partly drawn) [Example 276], the DC50 is below 1 nM, the Dmax was in the range of 80 to 90% and the “PBMC DC90” value was “A (A represents a DC90 value <10.0 nM)”.

With `CC(C)Oc1cc2c(cc1NC(=O)c1cnn3cccnc13)CN([C@H]1CC[C@@H](N3CC4(CN(c5ccc6c(c5)CN(C5CCC(=O)NC5=O)C6=O)C4)C3)CC1)C2=O` (stereo partly drawn) [Example 277], the DC50 is below 1 nM, the greatest degradation seen (Dmax) was at least 90% and the “PBMC DC90” value is “A (A represents a DC90 value <10.0 nM)”.

Regarding `CC(C)Oc1cc2c(cc1NC(=O)c1cnn3cccnc13)CN([C@H]1CC[C@H](N3CC4(CN(c5ccc6c(c5)CN(C5CCC(=O)NC5=O)C6=O)C4)C3)CC1)C2=O` (stereo partly drawn) [Example 284], the DC50 was below 1 nM, the greatest degradation seen (Dmax) was at least 90% and the “PBMC DC90” value is given as “A (A represents a DC90 value <10.0 nM)”.

In the case of `CC(C)Oc1cc2c(cc1NC(=O)c1cnn3cccnc13)CN(C1CCN(CC3CCN(c4ccc(C(=O)NC5CCC(=O)NC5=O)c(F)c4)CC3)CC1)C2=O` (stereo not drawn) [Example 286, N-[2-[1-[[1-[4-[(2,6-dioxo-3-piperidyl)carbamoyl]-3-fluoro-phenyl]-4-piperidyl]methyl]-4-piperidyl]-6-isopropoxy-1-oxo-isoindolin-5-yl]pyrazolo[1,5-a]pyrimidine-3-carboxamide], the DC50 fell in the range of 1 to 5 nM; the Dmax is at least 90%; the “PBMC DC90” value is “B (B represents a DC90 value ≥10.0 nM and <25.0 nM)”.

Consider `O=C1CCC(NC(=O)c2ccc(N3CC(F)(CN4CCC(n5cc6cc(NC(=O)c7cnn8cccnc78)c(OCC7CC7)cc6n5)CC4)C3)cc2F)C(=O)N1` (stereo not drawn) [Example 291], for which the half-maximal degradation concentration (DC50) was in the range of 1 to 5 nM; the Dmax is at least 90%; the “PBMC DC90” value was “B (B represents a DC90 value ≥10.0 nM and <25.0 nM)”.

Turning to `CC(C)Oc1cc2c(cc1NC(=O)c1cnn3cccnc13)CN(C1CCN(CC3CN(c4ccc(C(=O)NC5CCC(=O)NC5=O)c(F)c4)C3)CC1)C2=O` (stereo not drawn) [Example 292], the DC50 was below 1 nM, the Dmax is at least 90% and the “PBMC DC90” value was “A (A represents a DC90 value <10.0 nM)”.
